According to paper PMC10449621, “Engineering cellular communication between light-activated synthetic cells and bacteria” (Nature Chemical Biology, 2023):
Where “and” joins values, the source holds several entries; their conditions need not be identical. Equal values may be shown once. Entries after “also recorded” stand apart in the source; their conditions may differ.

What was measured:
[1] = test system: BjaRS107R (B0033|ATG) receiver cells; test: BjaR receiver cell AHSL dose-response (gfp reporter, plate reader); format: cell-based, E. coli XL10-Gold
Description: (§1) These findings are consistent with the predicted translation initiation rates of the respective sequences—translation from the BBa_B0033 RBS provides 1% of protein yield compared to the BBa_B0034 RBS, just as an CTG start codon provides 1% of the protein yield compared to an ATG start codon[30],[31]. This also offers support as to why the ON-state gfp expression level increased in variants with a tighter OFF-state; more cellular resources were available for GFP synthesis when comparatively fewer were allocated to BjaR synthesis. To elucidate the impact of the S107R variant on gene circuit performance, we introduced the S107R variant alone back into the bjaRWT gene, in the context of the BBa_B0033 RBS background.
(§2) In addition to quantifying how these BjaR receiver cells responded to their branched, cognate ligand, we also sought to determine whether the BjaR receiver cells could be activated by structurally dissimilar AHSLs involved in the LuxI/R, EsaI/R, LasI/R and RhlI/R QS systems previously used in synthetic cell communication[5],[7],[8]. To this end, we measured the fluorescence of BjaR receiver cells grown in the presence of their activators, 3OC6-HSL, 3OC12-HSL and C4-HSL, respectively (Supplementary Fig. 13a).
(§3) The BjaR reporter plasmids were retransformed into E. coli XL10-Gold cells for each experiment. A single colony was used to inoculate 5 ml LB + Amp media and incubated at 37 °C, 225 r.p.m. overnight. Overnight cultures were diluted 1/250 or 1/500 in 5 ml M9 minimal media + Amp and incubated at 37 °C, 225 r.p.m. for 3 h and 45 min (until OD600 = ~0.075). Cultures were diluted down to OD600 = 0.05 with M9 minimal media + Amp, and 200 µl was added to wells of a 96-well plate containing 1 µl IV-HSL dissolved in DMSO or 1 µl BjaI CFPS reactions (IV-HSL concentrations obtained from serial dilution from 63.2 µM to 632 pM; final DMSO concentration = 0.5%). Cells were incubated at 37 °C, 800 r.p.m., in a thermomixer with a heated lid for 4 h. Fluorescence and OD600 were measured in a Tecan M1000 infinite plate reader (excitation, 488 nm; emission, 510 nm; bandwidth, 5 nm; gain, 101 and z position, 21,311 µm). The dose–response curves were fitted to the function indicated by Eq. (1), where a = maximal fluorescence output, b = basal fluorescence output, X = concentration of AHSL, GFP = fluorescence at the given condition, EC50 = AHSL at 50% maximal fluorescence output and h = hill coefficient. EC50 and h were derived using the nonlinear regression model based on Eq. (1), in MATLAB. A summary of the dose–response data is available in Supplementary Table 1.1 GFP=b+a−b/1+10^logEC50−X×h

[2] = test system: BjaRWT (B0033|ATG) receiver cells; test: as above; format: cell-based, E. coli XL10-Gold; conditions: for Mean normalised fluorescence / Normalised fluorescence / GFP: sheet 3e; for Normalised fluorescence / GFP: Expt1-3; for GFP: raw fluorescence ex 488/em 510 nm
Description: as §1, §2, §3

pRhlI promoters (RhlR) = test system: pRhlI promoters (RhlR); design: method as in PMID 29992956; conditions: cited from earlier work

Compound	Mean normalised fluorescence ([2]; Log([ASHL]) -6.5)	Mean normalised fluorescence ([2]; Log([ASHL]) -7)	Normalised fluorescence ([2]; Log([ASHL]) -7)	GFP ([2]; Log([ASHL]) -7)	Mean normalised fluorescence ([2]; Log([ASHL]) -7.5)	Normalised fluorescence ([2]; Log([ASHL]) -7.5)	GFP ([2]; Log([ASHL]) -7.5)	Mean normalised fluorescence ([2]; Log([ASHL]) -8)	Normalised fluorescence ([2]; Log([ASHL]) -8)	GFP ([2]; Log([ASHL]) -8)	Mean normalised fluorescence ([2]; Log([ASHL]) -8.5)	Normalised fluorescence ([2]; Log([ASHL]) -8.5)	GFP ([2]; Log([ASHL]) -8.5)	Mean normalised fluorescence ([2]; Log([ASHL]) -9)	Normalised fluorescence ([2]; Log([ASHL]) -9)	GFP ([2]; Log([ASHL]) -9)	Mean normalised fluorescence ([2]; Log([ASHL]) -9.5)	Normalised fluorescence ([2]; Log([ASHL]) -9.5)	GFP ([2]; Log([ASHL]) -9.5)	Mean normalised fluorescence ([2]; Log([ASHL]) -10)	also measured
CCCC(=O)CC(=O)N[C@H]1CCOC1=O [3OC6-HSL, N-(3-oxo-hexanoyl)-L-homoserine lactone]																					gfp expression in response to non-cognate AHSL [1]: minimal GFP was produced; gfp expression in response to non-cognate AHSL [2]: did not express gfp; also recorded: minimal GFP was produced
CCCCCCCCCC(=O)CC(=O)N[C@H]1CCOC1=O [3OC12-HSL]																					gfp expression in response to non-cognate AHSL [1]: minimal GFP was produced; gfp expression in response to non-cognate AHSL [2]: did not express gfp; also recorded: minimal GFP was produced
CCCC(=O)N[C@H]1CCOC1=O [C4-HSL, N-butyryl-L-homoserine lactone]																					sensitivity for IV-HSL over C4-HSL ([1]; C4-HSL vs IV-HSL): ~126 fold; activation of receiver cells at maximal concentration tested ([2]; 0.36 µM): partially activated; C4-HSL required relative to IV-HSL for the same fluorescence output (lower sensitivity) ([2]; C4-HSL vs IV-HSL): ~126 ×; concentration required to fully activate expression from pRhlI promoters (pRhlI promoters (RhlR)): > 100 µM
CCCC(=O)N[C@H]1CCOC1=O [C4HSL]	89755.1	24851.4	25795.6 and 21987 and 26771.5	6504 and 5697 and 8639	5633.53	5943.36 and 4742.76 and 6214.47	1544 and 1323 and 2047	2030.88	2169.85 and 1704.52 and 2218.28	628 and 544 and 810	1297.09	1166.04 and 1369.65 and 1355.57	416 and 558 and 438	1170.67	1077.7 and 1245.14 and 1189.19	387 and 507 and 403	1170.76	1086.47 and 1200.78 and 1225.03	387 and 492 and 393	1105.3	Normalised fluorescence ([2]; Log([ASHL]) -6.5): 87597.7 and 86111.2 and 95556.3; GFP ([2]; Log([ASHL]) -6.5): 21193 and 21411 and 30615; Normalised fluorescence ([2]; Log([ASHL]) -10): 1065.28 and 1106.75 and 1143.86; GFP ([2]; Log([ASHL]) -10): 377 and 461; Mean normalised fluorescence ([2]; Log([ASHL]) -10.5): 1140.47; Normalised fluorescence ([2]; Log([ASHL]) -10.5): 1078 and 1145.04 and 1198.38; GFP ([2]; Log([ASHL]) -10.5): 375 and 468 and 384; Mean normalised fluorescence ([2]; Log([ASHL]) -11): 1127.16; Normalised fluorescence ([2]; Log([ASHL]) -11): 1056.83 and 1148.2 and 1176.47; GFP ([2]; Log([ASHL]) -11): 372 and 467 and 379; Mean normalised fluorescence ([2]; Log([ASHL]) -11.5): 1165.29; Normalised fluorescence ([2]; Log([ASHL]) -11.5): 1094.25 and 1223.38 and 1178.24; GFP ([2]; Log([ASHL]) -11.5): 376 and 387 and 476
CCCCCC(=O)N[C@H]1CCOC1=O [C6HSL]	1368.65	1069.59	1188.52 and 915.717 and 1104.54	407 and 365 and 478	1072.17	1112.94 and 960.351 and 1143.21	387 and 361 and 491	1019.8	1032.26 and 951.298 and 1075.83	373 and 371 and 472	1002.73	909.599 and 1094.09 and 1004.49	364 and 473 and 363	1027.01	916.088 and 1080.14 and 1084.79	364 and 464 and 378	1017.95	932.091 and 1057.66 and 1064.1	365 and 455 and 371	1072.17	Normalised fluorescence ([2]; Log([ASHL]) -6.5): 1655.84 and 1049.46 and 1400.63; GFP ([2]; Log([ASHL]) -6.5): 525 and 399 and 567; Normalised fluorescence ([2]; Log([ASHL]) -10): 960.615 and 1126.04 and 1129.87; GFP ([2]; Log([ASHL]) -10): 370 and 475 and 378; Mean normalised fluorescence ([2]; Log([ASHL]) -10.5): 1041.96; Normalised fluorescence ([2]; Log([ASHL]) -10.5): 969.437 and 1060.85 and 1095.6; GFP ([2]; Log([ASHL]) -10.5): 369 and 456 and 376; Mean normalised fluorescence ([2]; Log([ASHL]) -11): 1037.02; Normalised fluorescence ([2]; Log([ASHL]) -11): 937.562 and 1077.9 and 1095.59; GFP ([2]; Log([ASHL]) -11): 358 and 462 and 368; Mean normalised fluorescence ([2]; Log([ASHL]) -11.5): 1058.71; Normalised fluorescence ([2]; Log([ASHL]) -11.5): 974.837 and 1085.17 and 1116.13; GFP ([2]; Log([ASHL]) -11.5): 366 and 368 and 469
CCCCCCCCCCCC(=O)N[C@H]1CCOC1=O [C12-HSL]	3660.47	1319.41	1877.08 and 986.388 and 1094.76	569 and 370 and 480	1262.26	1653.64 and 971.756 and 1161.39	519 and 366 and 490	1041.4	1139.61 and 918.045 and 1066.55	388 and 367 and 474	1040.51	943.135 and 1084.52 and 1093.88	358 and 472 and 378	1031.28	984.805 and 1073.68 and 1035.35	376 and 464 and 363	1017.68	918.306 and 1057.93 and 1076.79	351 and 459 and 368	1062.17	Normalised fluorescence ([2]; Log([ASHL]) -10): 938.8 and 1069.72 and 1178; GFP ([2]; Log([ASHL]) -10): 357 and 459 and 389; Mean normalised fluorescence ([2]; Log([ASHL]) -10.5): 1063.23; Normalised fluorescence ([2]; Log([ASHL]) -10.5): 1055.63 and 1095.89 and 1038.16; GFP ([2]; Log([ASHL]) -10.5): 379 and 459 and 370; Mean normalised fluorescence ([2]; Log([ASHL]) -11): 1104.13; Normalised fluorescence ([2]; Log([ASHL]) -11): 961.19 and 1115.34 and 1235.86; GFP ([2]; Log([ASHL]) -11): 359 and 475 and 401; Mean normalised fluorescence ([2]; Log([ASHL]) -11.5): 1958.08; GFP ([2]; Log([ASHL]) -11.5): 637 and 706 and 473
